We go through 1 compound from patent publication US7235267B1, “Brain cell or nerve cell-protecting agents comprising medicinal ginseng” (priority 1999, dated 2007).

Structures are written as SMILES. Entries after “also recorded” stand apart in the source; their conditions may differ. Read-outs that look alike come from different tables or passages of the source.

For data set [1], the system named is Bcl-xL. Nature of the data set: Bcl-xL expression in primary cultured oligodendrocytes (RT-PCR, immunoblotting). Format: cell-based, rat. As for the experimental part:
In order to investigate whether ginsenoside Rb1 enhances the expression of Bcl-xL in oligodendrocytes or not, for example, ginsenoside Rb1 at the concentrations from 1 fg/ml to 10 pg/ml was added to the primary cultured rat oligodendrocytes. After culture for 6 hours, total RNA was extracted and Bcl-xL mRNA was assayed by RT-PCR. β-actin mRNA was used as an internal standard of RT-PCR. Further, a part of oligodendrocytes was used as a sample for SDS electrophoresis after treatment with ginsenoside Rb1, and anti-apoptotic factor Bcl-xL in the culture well was examined by immunoblotting (Western blotting). Oligodendrocytes were isolated from the mixed brain cell culture by using the forebrain of newborn rats.
In order to investigate whether ginsenoside Rb1 enhances the expression of Bcl-xL in oligodendrocytes or not, for example, ginsenoside Rb1 at the concentration from 1 fg/ml to 10 pg/ml was added to the primary cultured rat oligodendrocytes. After culture for 6 hours, Total RNA was extracted and Bcl-xL mRNA was assayed by RT-PCR. β-actin mRNA was used as an internal standard of RT-PCR. Further, a part of oligodendrocytes was used as a sample for SDS electrophoresis after treating with ginsenoside Rb1, and the amount of anti-apoptotic factor Bcl-xL in the culture well was examined by immunoblotting (Western blotting). The mixed brain cell culture was initiated to isolate oligodendrocytes by using the forebrain of newborn rats.

Data set [2] deals with primary cultured myocardial cells. The data set can be described thus: Myocardial cell survival in glucose-free, serum-free medium (α-actinin immunoblotting). Format: cell-based, rat. As for the experimental part: We have investigated whether or not ginsenoside Rb1 could actually suppress myocardial cell death in the concentration range for increasing the expression of Bcl-xL protein. For that purpose, for example, the protective effect of ginsenoside Rb1 on myocardial cells was examined when the primary cultured myocardial cells were cultured without addition of glucose. Ginsenoside Rb1 in the concentration range from 0 to 1 ng/ml was added to myocardial cells in serum-free DMEM without containing glucose, and the myocardial cells were cultured for 4 or 5 days. Subsequently, the samples for electrophoresis were prepared, and immunoblotting (Western blotting) was performed by using anti-striated muscle specific α-actinin antibody.
We (the present inventors) investigated whether ginsenoside Rb1 could actually suppress myocardial cell death in the concentration range for increasing the expression of Bcl-xL protein or not. For that purpose, for example, the protective effect of ginsenoside Rb1 on myocardial cells was examined when the primary cultured myocardial cells were cultured without addition of glucose. Ginsenoside Rb1 in the concentration range from 0 to 1 ng/ml was added to serum-free DMEM without containing glucose, and myocardial cells were cultured for 4 or 5 days. Subsequently, the sample for electrophoresis was prepared, and immunoblotting (Western blotting) was performed by using anti-striated muscle specific α-actinin antibody. […] Statistical analyses were conducted by ANOVA+Scheffe's post hoc test.

For data set [3] the following is noted: intravenous administration (Saito et al. 1980); cited from earlier work.
The subject of data set [4] is gerbils with transient forebrain ischemia (hippocampal CA1 neurons). Conditions: cited from earlier work.
In data set [5] the test system is Bcl-xL. Nature of the data set: Bcl-xL expression in primary cultured myocardial cells (RT-PCR, immunoblotting). Format: cell-based, rat. As for the experimental part: Next, we have studied effect of ginsenoside Rb1 on the heart. For that purpose, for example, changes in the expression of Bcl-xL mRNA and Bcl-xL protein were examined with RT-PCR and immunoblotting, when primary cultured myocardial cells were cultured for 18 hours in the presence of ginsenoside Rb1. Myocardial cells were prepared as follows. The hearts of fetal rats at gestational day 17 were treated with trypsin EDTA to prepare dispersed cells, which were cultured for several days in DMEM containing 10% FCS (fetal calf serum). In RT-PCR, β-actin mRNA was used as the internal standard. In the immunoblotting, troponin T, a striated muscle-specific protein, was used as the internal standard, and expression of Bcl-xL protein was examined. In the immunoblotting, the same experiments were repeated 10 times by using different lots of myocardial cells, and Bcl-xL immunoreaction-positive bands were analyzed by densitometry and statistical analysis was performed.
Subsequently we studied the effectiveness of ginsenoside Rb1 on heart. For that purpose, for example, changes in the expressions of Bcl-xL mRNA and Bcl-xL protein were examined with the use of RT-PCR and immunoblotting, when the primary cultured myocardial cells were cultured for 18 hours in the presence of ginsenoside Rb1. Myocardial cells were prepared as follows. The hearts of fetal rats at gestational day 17 were treated with trypsin EDTA to prepare the dispersed cells, which were cultured for several days in DMEM containing 10% FCS (fetal calf serum). In RT-PCR, β-actin mRNA was used as the internal standard. In the immunoblotting, troponin T, a striated muscle-specific protein, was used as the internal standard, and expression of Bcl-xL protein was examined. In the immunoblotting, the same experiments were repeated 10 times by using different lots of myocardial cells, and Bcl-xL immunoreaction-positive bands were analyzed by densitometry and statistical analysis was performed.
A general note: Immunoblotting shows a protein as a band on a membrane.

The next data set has as its system ischemic brain. The data set can be described thus: Oral administration of ginsenoside Rb1 per se, neuroprotective action. Format: in vivo.

For the compound `CC(C)=CCC[C@](C)(O[C@@H]1O[C@H](CO[C@@H]2O[C@H](CO)[C@@H](O)[C@H](O)[C@H]2O)[C@@H](O)[C@H](O)[C@H]1O)[C@H]1CC[C@]2(C)[C@@H]1[C@H](O)C[C@@H]1[C@@]3(C)CC[C@H](O[C@@H]4O[C@H](CO)[C@@H](O)[C@H](O)[C@H]4O[C@@H]4O[C@H](CO)[C@@H](O)[C@H](O)[C@H]4O)C(C)(C)[C@@H]3CC[C@]12C` [ginsenoside Rb1], the “expression of Bcl-xL mRNA in oligodendrocytes” value in the data set on Bcl-xL [1] (100 fg/ml, 6 hours, RT-PCR) is reported as “obviously enhanced”. The “concentrations increasing Bcl-xL protein expression in oligodendrocytes” value with Bcl-xL [1] (FIG. 23) was in the range of 1 to 100 fg/mL. Moreover, in the data set with Bcl-xL [1] (immunoblotting after ginsenoside Rb1 addition), the “Bcl-xL protein in oligodendrocytes” value was “increased”. The “protective effect on myocardial cells” value in data set [2] (0.01 fg/ml, n=3) is “significant effects are not noted”. For the same compound, the “striated muscle-specific α-actinin by immunoblotting (myocardial cell survival)” value in data set [2] (1 fg/ml to 10^4 fg/ml, glucose-free serum-free medium, 4-5 days) is “significantly detected”. Besides, in data set [2] (FIG. 26), the “concentrations promoting survival of myocardial cells” value is 1-10^4 fg/ml. The LD50 entry in data set [3] is “approximately 448 mg/kg”. For the same compound, the “delayed neuronal death and learning disability” value in data set [4] (intracerebroventricular infusion immediately after 3 or 3.5 minute occlusion) was “suppressed”; in data set [4] (intraperitoneal 10 or 20 mg/kg once a day for one week in advance of 5-minute occlusion), “significantly prevent”. Also, the “nerve cells in the hippocampal CA1 area rescued” value in data set [4] (intraperitoneal 10 or 20 mg/kg/day before cerebral ischemia) was “approximately 30%”. Further, the “effect on delayed neuronal death” value in data set [4] (intraperitoneal immediately after 3- or 5-minute occlusion of common carotid arteries) is given as “no effect”. Further, in the data set on Bcl-xL [5] (1 fg/ml to 10^4 fg/ml, 18 hours, n=10), the “expression of Bcl-xL protein in myocardial cells” value is “significantly enhanced”. For the same compound, the “expression of Bcl-xL mRNA in myocardial cells” value in the data set with Bcl-xL [5] (1 fg/ml-100 fg/ml, 18 hours) is reported as “obviously increased”. Further, the “concentrations increasing Bcl-xL mRNA in myocardial cells” value in the data set on Bcl-xL [5] (FIG. 25) was in the range of 1 to 100 fg/mL. Moreover, the “neuroprotective action / protective action on the ischemic brain” value in the data set with ischemic brain is listed as “did not show protective effects; also recorded: did not exhibit neuroprotective action; also recorded: did not exhibit any protective action”.
